This is an account of results in paper PMC9420947, “^131I-Caerin 1.1 and ^131I-Caerin 1.9 for the treatment of non-small-cell lung cancer” (Frontiers in Oncology, 2022).

Data set [1] deals with A549 cells. The data set is described as follows: Cell uptake. It is filed as cell-based, human. The conditions noted are these: 24 hours, serum-free medium, 1.85 ×10^5Bq per well, γ count, triplicate, mean ± SD. As for the experimental part: A549 cells were seeded in four 24-well plates (Coring, USA) at 5×10^4 cells (500 µl) per well. The experiment was done in triplicate and included a positive-control well. After the cells were cultured in an incubator for 24 hours, the supernatant was discarded, 0.5 ml of serum-free medium was added to each well, and ^131I-Caerin 1.1 or ^131I-Caerin 1.9 and Na-^131I solution (1.85 ×10^5Bq or 2 µl per well) were added. After the cells were incubated for 2, 4, 6, or 24 hours, the cells were removed from the incubator. For the positive control, the supernatant was collected in a tube. For the experimental groups, the supernatant was discarded, and the cells were washed twice with PBS. Next, 200 µl of trypsin (GIBCO, USA) was added to each well. After digestion, the cells were washed three times with PBS and then collected in a tube to measure their radioactivity count. GraphPad Prism v9.3.0 was used to calculate the drug binding rate.

Data set [2] has as its system A549 cells. In words: Cell elution (retention). The format is cell-based, human. The conditions noted are these: 24 h incubation, wash, then 24 hours in serum-free medium, 1.85 ×10^5Bq per well, γ count, triplicate, mean ± SD. Here is the method: A549 cells were seeded in four 24-well plates at 5×10^4 cells (500 µl) per well and cultured for 24 hours. The experiment was done in triplicate and included a positive-control well. The supernatant was discarded, 0.5 ml of serum-free medium was added to each well, and then ^131I-Caerin 1.1, ^131I-Caerin 1.9, or free ^131I was added (1.85 ×10^5Bq or 2 µl per well). After incubation for 24 hours, the supernatant was discarded, the cells were washed twice with PBS, 0.5 ml of serum-free medium was added to each well, and the cells were incubated for another 2, 4, 6, or 24 hours. For the positive control, the supernatant was collected in a tube. For the experimental groups, the supernatant was discarded, the cells were washed twice with PBS, and 200 µl of trypsin was added to each well. After digestion, the cells were washed three times with PBS and then collected in a tube to measure the radioactivity count. GraphPad Prism v9.3.0 was used to calculate the drug retention rate.

Data set [3] deals with A549 cells. In words: CCK-8 cell proliferation and cytotoxicity. It is filed as cell-based, human. The following applies: CCK-8, 20,000 KBq/ml, 24 hours, triplicate, mean ± SD. Here is the method: A549 cells were seeded in two 96-well plates at 5×10^3 cells (100 µl) per well and cultured for 24 hours at 5% CO2 and 37°C. The ^131I-Caerin 1.1, ^131I-Caerin 1.9, and Na-^131I solutions were added to a final concentration of 2500, 5000, 10,000, or 20,000 KBq/ml. In the corresponding plates for Caerin 1.1 and Caerin 1.9, the drug concentration was 3.29, 6.95, 14.29, or 30.72 µg/ml. The experiment was done in triplicate and included three control (drug-free) groups. The cells were cultured for another 24 hours. Next, 10 µl of CCK-8 solution (DOJINDO, Japan) was added to each well, and then the cells were cultured in the dark for 4-6 hours. The absorbance at 450 nm was measured in an enzyme-linked immunosorbent assay plate reader, and GraphPad Prism v9.3.0 was used to calculate the cell survival rate.

Data set [4] deals with A549 xenograft NSCLC tumors. In words: A549 subcutaneous xenograft in nude mice, tumor growth. It is filed as in vivo, BALB/c female nude mice. The conditions noted are these: intratumoral injection every other day, four injections, 8 μg peptide and/or 7.4 ×10^6 Bq, 3 days after the last injection, four mice per group. The text has this:
(§1) Specific pathogen–free (SPF) 4-6-week-old (adult) BALB/c female nude mice were purchased from Guangdong Medical Laboratory Animal Center. The animals were housed at the Animal Resource Center (First Affiliated Hospital of Guangdong Pharmaceutical University) under SPF conditions. No animal was sick or died during the study. Nude mice were sacrificed by cervical dislocation in accordance with the Animal Management Measures of the Ministry of Health of the People’s Republic of China (Document no.55, 2001). All experiments were approved and were done in accordance with the guidelines of the Animal Experiment Ethics Committee of the First Affiliated Hospital of Guangdong Pharmaceutical University (Ethics approval number: FAHGPU20160316).
(§2) A total of 100 µl of A549 cells (1×10^6 cells) suspended in PBS were inoculated subcutaneously in the axillary area of nude mice to establish a subcutaneous xenograft model. Once the tumor was 3 to 4 mm long, the nude mice were used in the following experiment. A digital caliper (Mitutoyo, Japan, CD-15APX) was used to monitor tumor size every other day. Tumor volume was calculated according to the formula: volume = width^2 × length/2.
(§3) To reduce the thyroid uptake of ^131I, all nude mice were fed 0.1% potassium iodide (Shanghai Macklin Biochemical Co., Ltd., China) for 3 days to block the thyroid before the experiment. […]

The nature of data set [5]: Body weight of A549 tumor-bearing nude mice. The format is in vivo, BALB/c female nude mice. The following applies: intratumoral injection every other day, four injections, 8 μg peptide and/or 7.4 ×10^6 Bq, 3 days after the last injection, four mice per group.
Description: as §1, §2, §3

In data set [6] the test system is A549 cells. The format is cell-based, human. The following applies: MTT; for survival rate of A549 cells: overnight, triplicate, mean ± SD. Here is the method: The NSCLC cell line A549 was from the Stem Cell Bank of the Chinese Academy of Sciences. The medium of A549 cells contained 89% RPMI medium 1640 (GIBCO, USA), 10% heat-inactivated fetal bovine serum (Coring, USA), and 1% penicillin-streptomycin solution (GIBCO, USA). The cells were incubated in an incubator (Thermo, USA) at 37°C in 5% CO2.
A total of 500 mg of 3-(4,5-dimethylthiazol-2-yl)-2,5-diphenyl tetrazolium bromide (MTT) powder (Sigma-Aldrich, USA) was dissolved in 100 ml of PBS to a final concentration of 5 mg/ml (0.5% MTT). The solution was stored in the dark at -20°C. A549 cells in the exponential growth phase were seeded in 96-well plates (Coring, USA) at 5×10^3 cells (100 µl) per well and then incubated at 37°C in 5% CO2 for 24 hours. Different concentrations of P3, Caerin 1.1, and Caerin 1.9 were added to the 96-well plates to reach final concentrations of 1, 5, 10, 15, 20, 25, 30, and 40 μg/ml. The experiment was done in triplicate and included control wells. The cells were cultured overnight. Once the drug’s effect was visible under the microscope, 10 µl of MTT solution was added to each well, and the cells were cultured for another 4 hours. Next, the supernatant was carefully aspirated, 150 µl of dimethyl sulfoxide solution (Sigma-Aldrich, USA) was added to each well, and the 96-well plates were placed on a shaker at low speed for 10 minutes. The absorbance at 570 nm was measured in an enzyme-linked immunosorbent assay plate reader (Thermo Scientific, USA). GraphPad Prism v9.3.0 was used calculate the half-maximal inhibitory concentration (IC50) of each drug and the survival rate (%).

Read-outs that look alike come from different tables or passages of the source. No end group written: not given here.

Regarding `[131I-].[Na+]` [Na-^131I, reference compound], the “uptake rate by A549 cells” value in the data set with A549 cells [1] worked out at 0.67 ± 0.08%. In the data set on A549 cells [2], the “binding rate after elution” value is reported as 4.97% ± 0.59%. The “survival rate of A549 cells” value in the data set with A549 cells [3] is on record as 71.56% ± 9.83%. In data set [4], the “tumor volume at the time of sacrifice” value worked out at 186.30 ± 19.69 mm^3 and the “tumor weight after sacrifice” value is given as 0.147 ± 0.009 g. In addition, the “body weight at the time of sacrifice” value in data set [5] was determined as 17.99 ± 0.50 g.

As for “GLFGVLGSIAKHVLPHVVPVIAEKL-NH2 [Caerin 1.9]”, the “survival rate of A549 cells” value in the data set with A549 cells [6] (10 μg/ml) was 74.20% ± 3.57%; with A549 cells [6] (15 μg/ml), 72.65% ± 0.76%; with A549 cells [6] (20 μg/ml), 36.43% ± 4.85%; with A549 cells [6] (25 μg/ml) it was 20.43% ± 1.92%. In addition, the “IC50 on A549 cells” value in the data set with A549 cells [6] (1-40 μg/ml, GraphPad Prism) worked out at 17.46 µg/mL.
